# Reference: ChEMBL document CHEMBL5518215, “Unlocking Antibacterial Potential: Key-Site-Based Regulation of Antibacterial Spectrum of Peptides” (J Med Chem, 2024)
# Calls of active or inactive are those of the source. The rule behind the calls is not given here.
# Experiments:
# Escherichia coli [1] = assay: Antibacterial activity against Escherichia coli 25922 assessed as absence bacterial growth measured after 4 hrs treated with H2O2; type: functional
# Escherichia coli [2] = assay: Antimicrobial activity against Escherichia coli 25922 assessed as absence bacterial growth measured after 18 to 24 hrs incubation in presence of FeCl3 by NCCLS method; type: functional; settings: time 18-24 hrs
# Staphylococcus aureus [3] = assay: Inhibition of respiratory chain dehydrogenase activity in mid-log phase Staphylococcus aureus 29213 measured after 4 hrs by Red-tetraazoline based spectrophotometry assay
# Escherichia coli [4] = assay: Induction of morphological changes in Escherichia coli 25922 assessed as changes in cell surface by measuring signs of disruption by using scanning electron microscopy; type: functional, organism-based
# Escherichia coli [5] = assay: Antimicrobial activity against Escherichia coli K88 assessed as absence bacterial growth measured after 18 to 24 hrs incubation by NCCLS method; type: functional; settings: time 18-24 hrs
# Staphylococcus aureus [6] = assay: Antimicrobial activity against Methicillin-resistant Staphylococcus aureus 43300 assessed as bacterial killing measured after 16 hrs incubation; type: functional
# [7] = test system: Staphylococcus epidermidis; assay: Antimicrobial activity against Staphylococcus epidermidis 12228 assessed as bacterial killing measured after 16 hrs incubation; type: functional
# Staphylococcus aureus [8] = assay: Antimicrobial activity against Staphylococcus aureus 29213 assessed as bacterial killing measured after 16 hrs incubation; type: functional
# [9] = Cytotoxicity against porcine IPEC-J2 cells assessed as cell survival rate at 64 uM measured after 8 hrs by MTT assay relative to control; type: toxicity, cell-based, Sus scrofa; settings: pig, read-out: Activity
# [10] = Cytotoxicity against mouse RAW264.7 cells assessed as cell survival rate at 32 to 64 uM measured after 8 hrs by MTT assay relative to control; type: toxicity, cell-based; settings: dose 32-64 µM, read-out: Activity
# Listeria monocytogenes = assay: Antimicrobial activity against Listeria monocytogenes 1.10753 assessed as absence bacterial growth measured after 18 to 24 hrs incubation by NCCLS method; type: functional; settings: time 18-24 hrs
# Escherichia coli [11] = assay: Antibacterial activity against Escherichia coli 25922 assessed as absence bacterial growth measured after 18 to 24 hrs incubation at pH 8 by NCCLS method; type: functional; settings: time 18-24 hrs
# [12] = Cytotoxicity against porcine IPEC-J2 cells assessed as cell survival rate measured after 8 hrs by MTT assay; type: toxicity, cell-based, Sus scrofa; settings: pig
# [13] = Hemolytic activity in human RBC at effective concentration at 128 uM measured after 1 hr by microplate reader relative to control; type: toxicity, cell-based, Erythrocyte; settings: human red blood cells (erythrocytes), read-out: Activity
# Bacillus cereus [14] = assay: Antimicrobial activity against Bacillus cereus 1.932 assessed as absence bacterial growth measured after 18 to 24 hrs incubation by NCCLS method; type: functional; settings: time 18-24 hrs
# Escherichia coli [15] = assay: Outer membrane permeabilization/cell wall in Escherichia coli 25922 assessed as fluorescence intensity of NPN measured at 2 to 128 uM after 1 hr by spectrophotometry; type: functional, organism-based; settings: dose 2-128 µM
# Staphylococcus aureus [16] = assay: Antimicrobial activity against Staphylococcus aureus 29213 assessed as absence bacterial growth measured after 18 to 24 hrs incubation by NCCLS m; type: functional; settings: time 18-24 hrs
# [17] = test system: Staphylococcus epidermidis; assay: Antimicrobial activity against Staphylococcus epidermidis 12228 assessed as absence bacterial growth measured after 18 to 24 hrs incubation by NCCLS method; type: functional; settings: time 18-24 hrs
# Pseudomonas aeruginosa = assay: Antimicrobial activity against Pseudomonas aeruginosa 27853 assessed as absence bacterial growth measured after 18 to 24 hrs incubation by NCCLS method; type: functional; settings: time 18-24 hrs
# Salmonella typhimurium [18] = assay: Antimicrobial activity against Salmonella typhimurium 14028 assessed as bacterial killing measured after 16 hrs incubation; type: functional, Salmonella enterica subsp. enterica serovar Typhimurium; settings: Salmonella enterica
# Staphylococcus aureus [19] = assay: Induction of morphological changes in Staphylococcus aureus 29213 assessed as loose distribution of cellular contents by using transmission electron microscopy; type: functional, organism-based
# Enterococcus faecalis = assay: Antimicrobial activity against Enterococcus faecalis 29212 assessed as absence bacterial growth measured after 18 to 24 hrs incubation by NCCLS method; type: functional; settings: time 18-24 hrs
# Staphylococcus aureus [20] = assay: Induction of morphological changes in Staphylococcus aureus 29213 assessed as changes in cell surface by measuring signs of disruption by using scanning electron microscopy; type: functional, organism-based
# Cell membrane [21] = assay: Induction of membrane disruption in Staphylococcus aureus 29213 assessed as increase in extracellular ATP level at 4 to 32 uM measured after 1 hr; type: cell membranes; settings: dose 4-32 µM
# Escherichia coli [22] = assay: Induction of morphological changes in Escherichia coli 25922 assessed as membrane damage and cytoplasmic leakage by using transmission electron microscopy; type: functional, organism-based
# Bacillus cereus [23] = assay: Antimicrobial activity against Bacillus cereus 1.932 assessed as bacterial killing measured after 16 hrs incubation; type: functional
# Escherichia coli [24] = assay: Induction of ROS production in mid-log phase Escherichia coli 25922 assessed as fluorescence intensity at 1 to 64 uM by DCFH-DA assay; type: functional, organism-based; settings: dose 1-64 µM
# Escherichia coli [25] = assay: Antibacterial activity against Escherichia coli 25922 assessed as absence bacterial growth measured after 8 hrs treated with H2O2; type: functional
# Salmonella typhimurium [26] = assay: Antimicrobial activity against Salmonella typhimurium C7731 assessed as bacterial killing measured after 16 hrs incubation; type: functional, Salmonella enterica subsp. enterica serovar Typhimurium; settings: Salmonella enterica
# Escherichia coli [27] = assay: Antimicrobial activity against Escherichia coli K88 assessed as bacterial killing measured after 16 hrs incubation; type: functional
# Escherichia coli [28] = assay: Antimicrobial activity against Escherichia coli 25922 assessed as absence bacterial growth measured after 18 to 24 hrs incubation in presence of 12.5% serum by NCCLS method; type: functional; settings: time 18-24 hrs
# Escherichia coli [29] = assay: Antimicrobial activity against Escherichia coli 25922 assessed as absence bacterial growth measured after 18 to 24 hrs incubation by NCCLS method; type: functional; settings: time 18-24 hrs
# Escherichia coli [30] = assay: Antibacterial activity against Escherichia coli 25922 assessed as absence bacterial growth measured after 12 hrs treated with H2O2; type: functional
# DNA = assay: Binding affinity to DNA in Staphylococcus aureus 29213 incubated for 1 hr by electrophoresis; type: nucleic-acid assay
# Escherichia coli [31] = assay: Antimicrobial activity against Escherichia coli 25922 assessed as absence bacterial growth measured after 18 to 24 hrs incubation in presence of ZnCl2 by NCCLS method; type: functional; settings: time 18-24 hrs
# [32] = Antimicrobial activity against Salmonella pullorum C7913 assessed as absence bacterial growth measured after 18 to 24 hrs incubation by NCCLS method; type: functional, Salmonella enterica subsp. enterica serovar Pullorum; settings: Salmonella enterica, time 18-24 hrs
# Escherichia coli [33] = assay: Antimicrobial activity against Escherichia coli 25922 assessed as absence bacterial growth measured after 18 to 24 hrs incubation in presence of KCl by NCCLS method; type: functional; settings: time 18-24 hrs
# Salmonella typhimurium [34] = assay: Antimicrobial activity against Salmonella typhimurium 14028 assessed as absence bacterial growth measured after 18 to 24 hrs incubation by NCCLS method; type: functional, Salmonella enterica subsp. enterica serovar Typhimurium; settings: Salmonella enterica, time 18-24 hrs
# Escherichia coli [35] = assay: Antimicrobial activity against Escherichia coli 25922 assessed as absence bacterial growth measured after 18 to 24 hrs incubation in presence of 25% serum by NCCLS method; type: functional; settings: time 18-24 hrs
# Erythrocyte = assay: Hemolytic activity in human RBC at effective concentration measured after 1 hr by microplate reader analysis; type: toxicity, cell-based
# Cell membrane [36] = assay: Induction of cytoplasmic membrane disruption in Escherichia coli 25922 assessed as increase in fluorescence intensity at 2 to 64 uM by DiSC3-5 probe based assay; type: cell membranes; settings: dose 2-64 µM, time <= 30.0 min, TDE = time-dependent effect
# Acinetobacter baumannii = assay: Antimicrobial activity against Acinetobacter baumannii 1.6769 assessed as bacterial killing measured after 16 hrs incubation; type: functional
# Staphylococcus aureus [37] = assay: Antimicrobial activity against Methicillin-resistant Staphylococcus aureus 43300 assessed as absence bacterial growth measured after 18 to 24 hrs incubation by NCCLS method; type: functional; settings: time 18-24 hrs
substance,measurement,setting,value
H-GKLWLKAGKLWLKGGKLWLKG-NH2,MIC,Escherichia coli [1],2 µM
same,MIC,Escherichia coli [2],2 µM
same,inhibition,Staphylococcus aureus [3],Active
same,Activity,Escherichia coli [4],Active
same,MIC,Escherichia coli [5],0.5 µM
same,MBC,Staphylococcus aureus [6],4 µM
same,MBC,[7],8 µM
same,MBC,Staphylococcus aureus [8],8 µM
same,"viability at 8 h, 64 µM",[9],> 80%
same,"viability at 8 h, up to 64 µM",[10],60%
same,MIC,Listeria monocytogenes,> 32 µM
same,MIC,Escherichia coli [11],2 µM
same,IC50 at 8 h,[12],> 64 µM
same,"hemolysis at 1 h, 128 µM",[13],< 10%
same,MIC,Bacillus cereus [14],2 µM
same,permeability,Escherichia coli [15],Permeable
same,MIC,Staphylococcus aureus [16],4 µM
same,MIC,[17],4 µM
same,MIC,Pseudomonas aeruginosa,4 µM
same,MBC,Salmonella typhimurium [18],16 µM
same,Activity,Staphylococcus aureus [19],Active
same,MIC,Enterococcus faecalis,4 µM
same,Activity,Staphylococcus aureus [20],Active
same,Activity,Cell membrane [21],Active
same,Activity,Escherichia coli [22],Active
same,MBC,Bacillus cereus [23],2 µM
same,Activity,Escherichia coli [24],Active
same,MIC,Escherichia coli [25],2 µM
same,MBC,Salmonella typhimurium [26],32 µM
same,MBC,Escherichia coli [27],0.5 µM
same,MIC,Escherichia coli [28],16 µM
same,MIC,Escherichia coli [29],2 µM
same,MIC,Escherichia coli [30],4 µM
same,Activity,DNA,Active
same,MIC,Escherichia coli [31],2 µM
same,MIC,[32],1 µM
same,MIC,Escherichia coli [33],2 µM
same,MIC,Salmonella typhimurium [34],2 µM
same,MIC,Escherichia coli [35],32 µM
same,HC10,Erythrocyte,> 128 µM
same,Activity,Cell membrane [36],Tde
same,MBC,Acinetobacter baumannii,2 µM
same,MIC,Staphylococcus aureus [37],4 µM
